Earlier results as cited in patent US7811790B2, “Polymyxin synthetase and gene cluster thereof” (priority 2005, dated 2010).

Legend:
[1] = test system: Pseudomonas aeruginosa having resistance against almost all antibiotics; settings: 3 osteomyelitis patients
[2] = test system: Pseudomonas aeruginosa and Acinetobacter baumannii exhibiting resistance against the conventional antibiotics; settings: intravenously injected, 60 patients
[3] = test system: Acinetobacter having resistance against antibiotics; settings: meningitis caused by antibiotic-resistant Acinetobacter
[4] = water and organic solvent
[5] = therapeutic use
[6] = test system: antibiotics-resistant Klebsiella pneumoniae; settings: ventriculis caused by antibiotics-resistant Klebsiella pneumoniae

polymyxin B sulfate
killed % of Pseudomonas aeruginosa (Pseudomonas aeruginosa; at the concentration of 0.01 μg/ml): 88%

polymyxin E
effect on gram-positive bacteria (gram-positive bacteria): no effect
concentration showing lethal effect (Pseudomonas aeruginosa; organism not restated in the sentence, follows the Pseudomonas aeruginosa sentence): 0.1 µg/mL
outcome of treatment of osteomyelitis [1]: improved
effect on fungi (fungi): no effect
effect on anaerobic bacteria (anaerobic bacteria): no effect
patients improved [2]: 58%
outcome of treatment of meningitis [3]: successfully treated

polymyxin
solubility [4]: soluble in both water and an organic solvent
induced toxicity [5]: severe neurotoxicity and hepatotoxicity
side effects [5]: serious side effects such as fever, eruption and pain

polymyxin B
effect on gram-positive bacteria (gram-positive bacteria): no effect
effect on fungi (fungi): no effect
effect on anaerobic bacteria (anaerobic bacteria): no effect
outcome of treatment of ventriculis [6]: successfully treated
